# Reference: patent publication US20220218667A1, “DUAL INHIBITORS OF SOLUBLE EPOXIDE HYDROLASE AND METHODS OF USE THEREOF” (OROX Biosciences, Inc., priority 2019, published 2022)
# Where “and” joins values, the source holds several entries; their conditions need not be identical. Identical values can stand only once. Entries after “also recorded” stand apart in the source; their conditions may differ.
# How the values were obtained:
# COX-2 = molecular target: T1, COX-2 (Homo sapiens, UniProt P35354); experiment: COX-2 inhibition IC50, COX Fluorescent Inhibitor Screening Assay; format: biochemical
# T1 construct: purchased Cayman Chemical 700100
# T1 sequence (P35354 18-604): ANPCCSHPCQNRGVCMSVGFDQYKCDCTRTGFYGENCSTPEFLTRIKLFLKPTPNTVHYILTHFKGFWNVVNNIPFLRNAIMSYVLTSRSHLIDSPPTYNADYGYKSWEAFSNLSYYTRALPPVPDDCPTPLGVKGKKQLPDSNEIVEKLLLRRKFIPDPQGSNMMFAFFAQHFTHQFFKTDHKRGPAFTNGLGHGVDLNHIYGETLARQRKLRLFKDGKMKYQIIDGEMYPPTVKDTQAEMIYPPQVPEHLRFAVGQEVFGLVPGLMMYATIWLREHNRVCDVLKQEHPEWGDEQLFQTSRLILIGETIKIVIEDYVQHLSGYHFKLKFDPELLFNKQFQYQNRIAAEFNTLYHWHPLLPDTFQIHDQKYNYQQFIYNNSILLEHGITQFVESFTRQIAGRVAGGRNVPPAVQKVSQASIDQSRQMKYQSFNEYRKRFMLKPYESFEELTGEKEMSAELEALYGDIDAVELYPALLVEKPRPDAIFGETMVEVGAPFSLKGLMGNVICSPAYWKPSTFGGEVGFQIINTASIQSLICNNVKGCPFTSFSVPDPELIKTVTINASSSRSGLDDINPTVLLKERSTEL
# Method: A COX Fluorescent Inhibitor Screening Assay Kit (catalog number 700100, Cayman Chemical, Ann Arbor, Mich.) is useful for assaying the ability of the compounds provided herein to inhibit ovine COX-1 and human recombinant COX-2 (% inhibition at 100 μM and IC50 values (M), respectively). Stock solutions of test compounds are dissolved in a minimum volume of DMSO. 10 μl of various concentrations of the test compound solutions, e.g., [I]final between 0.01 and 100 μM, are added to a series of supplied reaction buffer solutions (150 μl, 100 mM Tris-HCl, pH 8.0) with either COX-1 or COX-2 (10 μl) enzyme in the presence of Heme (10 μl) and a fluorometric substrate (10 μl). The reactions are initiated by quickly adding 10 μl of arachidonic acid solution and then incubating the system for two minutes at room temperature. Fluorescence of resorufin, which is produced by the reaction between PGG2 and fluorometric substrate, ADHP (10-acetyl-3,7-dihydroxyphenoxazine), is analyzed with an excitation wavelength of 535 nm and an emission wavelength of 590 nm. The intensity of this fluorescence is proportional to the amount of resorufin, which is proportional to the amount of PGG2 present in the well during the incubation. Percent inhibition is calculated by comparison from the 100% initial activity sample value (no inhibitor).
# human sEH = molecular target: T2, human sEH (Homo sapiens, UniProt P34913); experiment: sEH inhibition IC50, fluorescent-based assay with purified recombinant sEH; format: biochemical
# T2 sequence (P34913 1-555): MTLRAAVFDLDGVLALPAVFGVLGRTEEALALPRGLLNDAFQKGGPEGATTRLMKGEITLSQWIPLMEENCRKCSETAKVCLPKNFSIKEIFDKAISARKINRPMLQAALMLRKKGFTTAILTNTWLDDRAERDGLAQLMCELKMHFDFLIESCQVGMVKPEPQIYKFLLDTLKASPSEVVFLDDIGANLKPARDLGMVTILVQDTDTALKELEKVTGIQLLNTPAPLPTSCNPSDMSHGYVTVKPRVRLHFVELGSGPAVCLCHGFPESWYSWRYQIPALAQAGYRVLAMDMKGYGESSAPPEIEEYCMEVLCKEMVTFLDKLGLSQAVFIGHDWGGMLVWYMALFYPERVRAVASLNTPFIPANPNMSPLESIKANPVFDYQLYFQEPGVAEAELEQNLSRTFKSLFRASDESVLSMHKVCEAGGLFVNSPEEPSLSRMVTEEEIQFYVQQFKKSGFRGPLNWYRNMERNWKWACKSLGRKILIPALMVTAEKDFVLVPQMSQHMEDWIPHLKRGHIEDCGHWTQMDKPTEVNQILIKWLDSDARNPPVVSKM
# Method: sEH inhibition IC50 values for the compounds presented herein can be assayed by a recombinant affinity assay using purified sEHs, from human, mouse or rat, in a fluorescent-based assay. In such an assay, enzymes, e.g., ˜1 nM human sEH, are incubated with a potential inhibitors for 5 min in 25 mM Bis-Tris/HCl buffer (200 μL; pH 7.0) at 30° C. before a substrate, e.g., cyano(2-methoxynaphthalen-6-yl)methyl trans-(3-phenyl-oxyran-2-yl)methyl carbonate, (CMNPC) is added ([S]final=5 μM).
# [1] = test system: C57B/L6 mice exposed to bleomycin; experiment: Example 1: prophylactic treatment of mice exposed to bleomycin (IPF model); format: in vivo, mouse
# Source text: 4-(5-phenyl-3-{3-[3-(4-trifluoromethyl-phenyl)-ureido]-propyl}-pyrazol-1-yl)-benzenesulfonamide (PTUPB) [termed OX1] was compared to Pirfenidone, Nintedanib, and GSK225629415 [termed OX3] for treatment of IPF using an established model for IPF treating, which is prophylactic treatment of mice exposed to the chemotherapeutic agent bleomycin. […] Pirfenidone and Nintedanib are standard of care for the treatment of idiopathic pulmonary fibrosis and served as reference compounds in the experiment.
# C57B/L6 mice were used in the experiments. When used, Bleomycin was administered intra-oropharyngeally, 1.5 U/kg, QD per established protocol. The test articles were dosed via oral gavage in 200 μL/day vehicle. The doses and formulations of test articles were selected based on the literature describing the lowest doses capable of eliciting pharmacological action.
# Animals were dosed with the test articles (or vehicle) starting at day −1 to day 20. On day 1, daily doses of Bleomycin commenced in all but group 1 (negative control) which received the vehicle. On day 21, all animals were weighed and sacrificed. After lungs and bronco-alveolar lavage fluid (BALF) were harvested, they were prepared according to standard procedures for further analysis and histology. All animals were assessed twice a week for body weight and overall appearance. Efficacy endpoints measured in this study included lung weight, total leukocytes, and histology as determined by Mason's Trichrome stain and scored using a modified Ashcroft score.
# The following parameters were measured in bronchoalveolar fluid (BALF): 1) soluble collagen and 2) differential leukocyte counts for different leukocyte populations.
# After weighing and removal of BALF from the lungs, they were inflated and fixed using 10% neutral buffered formalin for histopathology analysis. Fifty-four formalin-fixed lung samples from mice were submitted to HistoTox Labs and were processed routinely. Two slides from each block were sectioned and stained with hematoxylin and eosin (H&E) or Masson's trichrome. Glass slides were evaluated with light microscopy by a board-certified veterinary pathologist. Lung sections were scored according to the modified Ashcroft scale.
# [2] = day 21, OX1, OX3, Nintedanib 30 mg/kg QD, Pirfenidone 100 mg/kg BID, oral
# [3] = day 21, compared to vehicle (Group 2), OX1, OX3, Nintedanib 30 mg/kg QD, Pirfenidone 100 mg/kg BID
compound,measurement,setting,value
"NS(=O)(=O)c1ccc(-n2nc(CCCNC(=O)Nc3ccc(C(F)(F)F)cc3)cc2-c2ccccc2)cc1 [OX1, 4-(5-phenyl-3-{3-[3-(4-trifluoromethyl-phenyl)-ureido]-propyl}-pyrazol-1-yl)-benzenesulfonamide]",IC50,COX-2,100 nM
same,IC50,human sEH,2 nM
same,body weight change at end of experiment compared to starting point,"[1]; bleomycin mice, OX1 30 mg/kg QD oral gavage day -1 to 20, day 21 vs day -1, 30 mg/kg",−1% and ~1%
same,body weight course over 21 days,"[1]; bleomycin mice, oral gavage day -1 to 20, OX1, OX3, Nintedanib 30 mg/kg QD, Pirfenidone 100 mg/kg BID",lost the least weight
same,lung weight (indicator of fluid accumulation and inflammation),"[1]; day 21, OX1 30 mg/kg QD oral",performed best in reducing bronchoalveolar fluid (BALF) accumulation and inflammation
same,soluble collagen in BALF,"[1]; day 21, OX1 30 mg/kg QD oral, 30 mg/kg",most effective in controlling the overall collagen production; also recorded: most effective test article in lowering production of soluble collagen
same,neutrophil migration into BALF,[1]; [2],effective
same,number of lymphocytes in BALF,[1]; [2],most effective at maintaining a large number of lymphocytes
same,total cell (leukocyte) count in BALF,[1]; [2],did not demonstrate the same level of reduction
same,"increased collagen (fibrosis) score, trichrome",[1]; [3],lowest tissue deposition of collagen; also recorded: markedly reduced
same,mean Ashcroft score (lung histology),[1]; [3],markedly reduced
same,mean score for mixed peribronchiolar/perivascular inflammation,[1]; [3],lower
